Measured values reported in paper PMC6225485, “Computational screening of chalcones acting against topoisomerase IIα and their cytotoxicity towards cancer cell lines” (Journal of Enzyme Inhibition and Medicinal Chemistry, 2018).

Biological target: T1, human topoisomerase IIα (rhTopoIIα ATPase domain) (Homo sapiens, UniProt P11388)
T1 construct: gene TOP2A; ATPase domain (45 kDa, recombinant, pET28b-hTopoIIα-ATPase)
Test: ADP-Glo ATPase assay with purified recombinant ATPase domain
Format: biochemical
Details: read-out: IC50 against rhTopoIIα ATPase domain

T1 sequence (P11388 29-428 limits assumed): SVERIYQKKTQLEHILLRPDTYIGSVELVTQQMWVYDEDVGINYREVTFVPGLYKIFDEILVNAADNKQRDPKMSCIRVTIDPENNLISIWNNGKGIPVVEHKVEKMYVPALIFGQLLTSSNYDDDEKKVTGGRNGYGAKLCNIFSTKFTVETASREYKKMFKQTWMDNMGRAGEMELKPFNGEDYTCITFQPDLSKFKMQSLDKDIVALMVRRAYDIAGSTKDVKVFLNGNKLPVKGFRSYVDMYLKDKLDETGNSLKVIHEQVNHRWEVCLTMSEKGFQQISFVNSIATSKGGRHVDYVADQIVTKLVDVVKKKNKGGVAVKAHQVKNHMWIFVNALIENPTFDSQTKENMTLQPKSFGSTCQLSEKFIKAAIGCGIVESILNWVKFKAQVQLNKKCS

## COc1cc(O)c(C(=O)/C=C/c2cc(OC)c(OC)c(OC)c2)c(OC)c1 [3d, chalcone 3d]
  IC50: 7.5 ± 4.2 nM

## Cc1ccc2c(c1CCC(O)C(C)(C)O)C(=O)C(=O)C(C(C)C)=C2 (centres unmarked) [Salvicine]
  IC50: 326 ± 6.6 nM
